From PMC6271870, “Study on the Synthesis, Biological Activity and Spectroscopy of Naphthalimide-Diamine Conjugates” (Molecules, 2014)

Tests used:
herring sperm DNA = test: Fluorescence quenching of compound by DNA (Stern-Volmer, binding constant, thermodynamics); conditions: 7f quenched by DNA
From the text: (§1) The Stern–Volmer equation is the following: F0/F = 1+ KSVc = 1+ […] where F0 and F are the ﬂuorescence intensities in the absence and presence of quencher (DNA for compound 7f or compound 7f for DNA-EB, respectively), KSV is the Stern-Volmer quenching constant, [c] is the concentration of DNA (or compound 7f), Kq is the biomolecule quenching rate constant and Kq = KSV/τ0. τ0 is the average lifetime of the molecule without any quencher and the ﬂuorescence lifetime of the biopolymer is 10^−8 s. The Stern–Volmer plots of F0/F versus [c] at the three temperatures were shown in Figure 9 and Figure 10, and the calculated KSV and Kq values were presented in Table 2 and Table 3.
(§2) When small molecules bind independently to a set of equivalent sites in a macromolecule, the binding constant (Kb) can be determined by the following equation [40, 52]: log[1/c] = log [F/(F0 − F)] + logKb(3) where Kb denotes the binding constant for interaction of naphthalimide–DNA, and F0, F, [c] have the same meanings as in Equation (2).
There are several acting forces between a small organic molecule and biomacromolecules, such as hydrophobic force, hydrogen bond, van der Waals force, electrostatic interactions, etc.
Preparation of sample is the same as that of UV-Vis measurement. Fluorescence wavelengths and intensity areas of samples were measured at following conditions: EX = 345 nm, EM = 355~600 nm temperature: 298, 303 and 310 K.

herring sperm DNA-EB = test: Fluorescence quenching of DNA-EB complex by compound (EB displacement); type: binding; conditions: DNA-EB quenched by 7f
From the text: Ethidium bromide (EB) is a well known DNA intercalator, which is often used as a spectral probe to establish the mode of binding of small molecules to double-helical DNA [41]. The ﬂuorescence of EB increases after binding with DNA due to intercalation. Like EB, if naphthalimides intercalate into the helix of DNA, it would compete with EB for its intercalation sites in DNA, and the displacement of EB from the DNA–EB complex leads to a signiﬁcant decrease in the ﬂuorescence intensity of the DNA-EB complex. Therefore, herring sperm DNA-EB complex in the presence of increasing concentrations of naphthalimide-diamine conjugate 7f was also measured.
as §1, §2
There are several acting forces between a small organic molecule and biomacromolecules, such as hydrophobic force, hydrogen bond, van der Waals force, electrostatic interactions, etc. […]

HepG2 cells = test: Cell cycle analysis by High Content Screening (PI staining); type: cell-based; conditions: HepG2, 20 μM, 48 h
Experimental: To reveal the cytotoxic mechanism of compound 7f, we ﬁrst examined its effects on the cell cycle perturbation. The DNA content analysis by High Content Screening (HCS) confirmed that 7f could induce HepG2 cell cycle perturbation (Figure 3).
Exponentially growing HepG2 cells were seeded in 96 well plates ([…]), cultured for 24 h and then treated with different concentrations of compound 7f for 48 h. After incubation for 48 h, cells were washed twice with ice-cold 10% PBS, fixed and permeabilized with ice-cold 70% ethanol at −20 °C overnight. The cells were treated with 50 μg/mL RNase A at room temperature for 30 min after washed with ice-cold PBS, and finally stained with 50 μg/mL propidium iodide (PI) in the dark at 4 °C for 30 min. The distribution of cell cycle phases with different DNA contents was read in image analysis system of high content screening living cells.

SMILES: Cl.Cl.NCCCCNCCCN1C(=O)c2cccc3cccc(c23)C1=O [Compound 7f, 2-[3-(4-Aminobutylamino)propyl]1H-benz-[de]isoquinoline-1,3(2H)-dione dihydrochloride]
- KSV (Stern-Volmer quenching constant) (herring sperm DNA; 298 K): 5567 L/mol
- KSV (Stern-Volmer quenching constant) (herring sperm DNA; 303 K): 4789 L/mol
- KSV (Stern-Volmer quenching constant) (herring sperm DNA; 310 K): 3651 L/mol
- KSV (Stern-Volmer quenching constant) (herring sperm DNA-EB; 298 K): 5028 L/mol
- KSV (Stern-Volmer quenching constant) (herring sperm DNA-EB; 303 K): 4564 L/mol
- KSV (Stern-Volmer quenching constant) (herring sperm DNA-EB; 310 K): 4176 L/mol
- cells in G2/M phase (HepG2 cells): 49.8%
- cells in G0/G1 phase (HepG2 cells; control 52.6%): 29.7%
